Laboratory results as given in patent US20100003217A1, “Compounds and Pharmaceutical Compositions for the Treatment of Viral Infections” (priority 2008, published 2010).
Values joined by “and” are separate entries in the source; they are usually repeats but may differ in a detail not shown here. Identical values can stand only once.

Test system: rat primary hepatocytes
Assay: Metabolic disposition of [^14C]-Compound 1 and [^14C]-2′-C-methyl guanosine in rat primary hepatocytes (incubation medium, cellular extracts, nucleotide levels)
Format: in vitro ADME, Sprague Dawley rat
Method: Primary hepatocytes: Freshly isolated cells from animal and human liver were obtained in suspension on ice. Cells were pelleted by centrifugation at 70-75×g (rat) or 95-90×g (monkey and human) and resuspended at 0.8 million cells per mL of platting medium (William's E supplemented with 5% FBS, 0.5% penicillin-streptomycin, 1% L-glutamine, 4 μg/mL insulin and 1 μM dexamethasone). Multi-well collagen I-coated plates (rat tail collagen type I; 12- or 6-well) were then seeded by addition of 1 mL (12-well; 0.8 million cells/well) or 2 mL (6-well; 1.6 million cells/well) of cell suspension. The plates were gently shaken to evenly distribute the cells and placed in an incubator at 37° C. for approximately 4 to 6 hours to allow cells to attach. Once cells were attached, the platting medium was removed and replaced with hepatocyte culture medium (William's E supplemented with penicillin-streptomycin, 1% L-glutamine, 1% insulin-transferrin-selenium and 0.1 μM dexamethasone). Cells were left overnight in an incubator at 37° C. to acclimatize to culture and the medium.
Hepatocyte incubations with radiolabeled Compound 1 and 2′-C-methyl guanosine, both labeled in the C-8 position of the guanine moiety, were conducted at a final volume of 2.0 mL hepatocyte culture medium/well ([…]). Culture medium from overnight incubation of cells was removed and replaced with fresh medium, pre-warmed to 37° C., containing 1 or 10 μM [^14C]-Compound 1 ([…]) or [^14C]-2′-C-methyl guanosine (127 DPM/μmol) from a stock solution in DMSO (final DMSO concentration was 0.1%) or 50% ethanol (final ethanol concentration was 0.2%). After 1, 4, 8 and 24 hours, 0.5-1.0 mL of incubation medium was removed and stored at −20° C. until analysis (described below). The remaining medium was discarded and cell monolayers were carefully washed two times with ice-cold PBS. Following the last wash, all PBS was carefully removed and 1.0 mL of extraction solution (ice-cold 70% methanol) added. Cells were scrapped off and suspended in the extraction solution, transferred to 2 mL polypropylene microfuge tubes and intracellular contents extracted overnight at −20° C.
Preliminary identification of putative metabolites was conducted by comparing the retention time of observed metabolites in incubation medium and cellular extracts with retention times obtained with chemically synthesized standards using the chromatography conditions described below. Further identification of 2′-C-methyl guanosine nucleotides (mono-, di- and triphosphate) was carried out by incubating cellular extract samples with alkaline phosphatase (10 units for 60 min at 37° C.) and comparing the HPLC retention times of the resulting nucleosides with that of authentic 2′-C-methyl guanosine.
Cellular extracts were prepared by centrifugation at 16,000 RCF using an Eppendorf microcentrifuge (Eppendorf, Model 5415D) for 10 min to remove cellular debris. An aliquot of 5-10 μL of the supernatant was added to 5 mL of EcoLite™ (MP, Irvine, Calif.) liquid scintillation cocktail and radioactivity measured by liquid scintillation counting (LSC) using a Beckman Coulter LS6500 multipurpose liquid scintillation counter (Beckman Instruments, Fullerton, Calif.). The remaining sample was then dried using a Labconco refrigerated centrivap concentrator (Labconco, Kansas City, Mo.). Dry extracts were reconstituted in 120 μL of HPLC-grade water and centrifuged at 16,000 RCF using an Eppendorf microcentrifuge for 10 min. Prior to HPLC analysis (described below), radioactivity of the concentrated extracts was measured by LSC using 5 μL aliquots. Extraction recovery was then determined by comparing total radioactivity in extracts before and after drying. The remaining extract was then analyzed by HPLC with online radioactivity detection using a Flow Scintillation Analyzer Radiomatic™ 515TR. Radioactivity in the separated components was quantified by integrating the peaks using Flo-One™ Software (Perkin Elmer Life Sciences). […]

[1] = rat hepatocytes (Rs448, Rs458), 10 μM [^14C]-Compound 1, 24 h
[2] = rat hepatocytes (Rs458), 1 μM [^14C]-Compound 1, 1 h
[3] = rat hepatocytes (Rs458), 1 μM [^14C]-Compound 1, 8 h
[4] = rat hepatocytes (Rs458), 1 μM [^14C]-Compound 1, 24 h

## CC(C)(CO)C(=O)SCCOP(N)(=O)OC[C@H]1O[C@@H](n2cnc3c(=O)[nH]c(N)nc32)[C@](C)(O)[C@@H]1O (mixture of isomers) [Compound 3, {9-[(2R)2-C-methyl-β-D-ribo-furanosyl]-guanin}-5′-yl-O-(hydroxy-tert-butyl-S-acyl-2-thioethyl) phosphoramidate]
Rat hepatocytes (Rs448, Rs458), 10 μM [^14C]-Compound 1, 8 h
  metabolites observed in cellular extracts (% of total radioactivity): BLD
[1]
  metabolites observed in cellular extracts (% of total radioactivity): BLD
Rat hepatocytes (Rs458), 1 μM [^14C]-Compound 1, 0 h
  metabolites observed in medium (% of total radioactivity): BLD
[2]
  metabolites observed in medium (% of total radioactivity): BLD
[3]
  metabolites observed in medium (% of total radioactivity): BLD
[4]
  metabolites observed in medium (% of total radioactivity): 1.7% and 1.71%
Rat hepatocytes (lots Rs448, Rs458), 10 μM [^14C]-Compound 1, 0 h
  metabolites observed in medium (% of total radioactivity): BLD
Rat hepatocytes (lots Rs448, Rs458), 10 μM [^14C]-Compound 1, 1 h
  metabolites observed in medium (% of total radioactivity): BLD
Rat hepatocytes (lots Rs448, Rs458), 10 μM [^14C]-Compound 1, 4 h
  metabolites observed in medium (% of total radioactivity): 0.9%
Rat hepatocytes (lots Rs448, Rs458), 10 μM [^14C]-Compound 1, 8 h
  metabolites observed in medium (% of total radioactivity): 1.4% and 2.1%
Rat hepatocytes (lots Rs448, Rs458), 10 μM [^14C]-Compound 1, 24 h
  metabolites observed in medium (% of total radioactivity): 1.4% and 1.7%

## CC(C)(CO)C(=O)SCCOP(=O)(NCc1ccccc1)OC[C@H]1O[C@@H](n2cnc3c(=O)[nH]c(N)nc32)[C@](C)(O)[C@@H]1O (mixture of isomers) [Compound 1, 3-hydroxy-2,2-dimethyl-thiopropionic acid S-(2-{[(2R,3R,4R,5R)-5-(2-amino-6-oxo-1,6-dihydro-purin-9-yl)-3,4-dihydroxy-4-methyl-tetrahydro-furan-2-ylmethoxy]-benzylamino-phosphoryloxy}-ethyl) ester]
Rat hepatocytes (Rs448, Rs458), 10 μM [^14C]-Compound 1, 1 h, listed as Compd 1
  metabolites observed in cellular extracts (% of total radioactivity): 15.0% and 19.7%
Rat hepatocytes (Rs448, Rs458), 10 μM [^14C]-Compound 1, 4 h, listed as Compd 1
  metabolites observed in cellular extracts (% of total radioactivity): 3.86% and 4.02%
Rat hepatocytes (Rs448, Rs458), 10 μM [^14C]-Compound 1, 8 h, listed as Compd 1
  metabolites observed in cellular extracts (% of total radioactivity): 1.20% and 0.95%
[1]
  metabolites observed in cellular extracts (% of total radioactivity): undetected
Rat hepatocytes (Rs448, Rs458), 10 μM [^14C]-Compound 1, 24 h, listed as Compd 1
  metabolites observed in cellular extracts (% of total radioactivity): BLD
[2]
  metabolites observed in cellular extracts (% of total radioactivity): 12.3%
[3]
  metabolites observed in cellular extracts (% of total radioactivity): BLD
[4]
  metabolites observed in cellular extracts (% of total radioactivity): BLD
Rat hepatocytes, 1 μM, 8 hours
  reduction in Compound 1 medium levels: approximately 79%
Rat hepatocytes, 10 μM, 4 hours
  decrease in Compound 1 medium levels: ~50%
Rat primary hepatocytes (n=1), 1 μM, 0 h
  % Residual [^14C]-Compound 1 in incubation medium: 99%
Rat primary hepatocytes (n=1), 1 μM, 1 h
  % Residual [^14C]-Compound 1 in incubation medium: 89%
Rat primary hepatocytes (n=1), 1 μM, 8 h
  % Residual [^14C]-Compound 1 in incubation medium: 21%
Rat primary hepatocytes (n=1), 1 μM, 24 h
  % Residual [^14C]-Compound 1 in incubation medium: 0%
Rat primary hepatocytes (n=2), 10 μM, 0 h
  % Residual [^14C]-Compound 1 in incubation medium: 95% and 97%
Rat primary hepatocytes (n=2), 10 μM, 1 h
  % Residual [^14C]-Compound 1 in incubation medium: 91% and 93%
Rat primary hepatocytes (n=2), 10 μM, 4 h
  % Residual [^14C]-Compound 1 in incubation medium: 48% and 55%
Rat primary hepatocytes (n=2), 10 μM, 8 h
  % Residual [^14C]-Compound 1 in incubation medium: 18% and 32%
Rat primary hepatocytes (n=2), 10 μM, 24 h
  % Residual [^14C]-Compound 1 in incubation medium: 0%
